Results as given in patent EP4781984A1 (Beyang Therapeutics Co., Ltd., priority 2023, dated 2025).
Values after ≈ are worked out from the molar mass of the structure shown.

Key:
[1] = Ophthalmic formulations based on in situ salt formation technology: composition and state (Example 8); format: physicochemical; conditions: pH ~7
Excerpt: (§1) In the following ophthalmic formulation preparation examples, "solution" refers to a clear, transparent liquid without visible insoluble matter. "Near-clear solution" refers to a liquid that appears close to a solution upon visual observation but may contain a small amount of insoluble particles or have a slightly opaque color. "Suspension" refers to a liquid that is visibly turbid or opaque. "Gel" refers to a completely or partially gel-like solid.
Example 8: Ophthalmic Formulation Based on In Situ Salt Formation Technology
Therefore, by preparing ophthalmic formulation compositions based on in situ salt formation technology, the solubility of the compounds can be further improved.
According to the formulation composition shown in the table below, weigh the compound powder, add 50% of the total volume (v/v) of a 30% (w/v) aqueous solution of hydroxypropyl-β-cyclodextrin (containing surfactant), and disperse by sonication; next, add an appropriate volume of pH regulator and sonicate until clear; then, add an equal volume of buffer containing solubilizer, viscosity modifier, etc., for dilution, and immediately vortex to mix; finally, add an appropriate volume of alkali regulator to adjust the solution pH to approximately 7, to prepare an eye drop formulation.
Using the in situ salt formation method, the compound is first dispersed in a solution containing Hydroxypropyl-β-cyclodextrin, then different acids are added to adjust the pH to 3-5, allowing the compound to fully or nearly fully dissolve, followed by adding the remaining components and adjusting the pH to approximately 7. […] Based on the visual dissolution effect after acid addition, methanesulfonic acid, acetic acid, and lactic acid were preliminarily selected as pH regulators. The preliminarily selected acids were used in subsequent tests with higher compound concentrations. Table 18 Formulation Composition and State

[2] = Ophthalmic formulations based on polyethylene glycol series vehicles: composition and state (Example 7); format: physicochemical
Excerpt: as §1
Example 7: Ophthalmic Formulations Based on Polyethylene Glycol Series Vehicles
According to the formulation composition shown in the tables below, weigh the compound powder, add it to polyethylene glycol 400, and sonicate until dissolved or nearly dissolved (heat to 50°C if necessary). Add this to a Tris-HCl buffer solution containing hydroxypropyl-β-cyclodextrin, poloxamer 188, and gellan gum (or other viscosity modifier), vortex to mix, and prepare into an eye drop formulation.

melanin = test: Compound binding to melanin; format: in vitro ADME; conditions: cuttlefish (Sepia officinalis), melanin suspension (1 mg/mL), percentage of free drug (not bound to melanin), 2 µM compound, melanin 1 mg/mL in PBS pH 7.4, 37°C
Excerpt: Detection of Compound Binding to Melanin
Pigmented ocular tissues contain melanin within intracellular melanosomes. Drugs bind to melanin to varying degrees, from no binding to extensive binding. Therefore, melanin binding is an important characteristic affecting ocular drug delivery and biodistribution. The ability of compounds to bind to melanin must be considered in ocular drug development.
Melanin derived from cuttlefish (Sepia officinalis) melanin was purchased from Sigma Aldrich (St Louis, MO).
First, prepare a 1 mg/mL melanin suspension in PBS (pH 7.4). As a matrix washing step, suspended particles were centrifuged at 3000 rpm for 5 minutes. The resulting pellet was resuspended in fresh PBS buffer, heated to 37°C with continuous shaking, and incubated for 1 hour. Accurately pipette 2 microliters of test compound stock solution (0.1 mM) into 98 microliters of melanin suspension (1 mg/mL), resulting in a final incubation concentration of 2 µM. Similarly, accurately pipette 2 microliters of stock solution (0.1 mM) into 98 microliters of PBS buffer (containing 0.1% BSA) as a blank control sample. Samples were incubated at 37°C for 2 hours on a shaker (80-90 rpm). Then centrifuged at room temperature. 50 microliters of supernatant was aspirated and added to 50 microliters of precipitation agent (containing internal standard). All samples above were subjected to protein precipitation, centrifuged, the supernatant was taken, diluted with water (if necessary), and then injected for analysis. Simultaneously, high-binding compounds Sunitinib and chloroquine, and the low-binding compound celecoxib were measured as positive controls. An LC-MS/MS analytical method for determining compound concentration was established. The ratio of analyte/internal standard peak areas (Aanalyte/AIS) measured in the samples, calibrated by the dilution factor, was used as the surrogate concentration for data processing. The binding rate of the compound to melanin (Fb) is calculated by the formula: Fb = 100−(Ctest)/(Ccontrol) × 100% [formula]
Ctest is the drug concentration of the compound in the melanin incubation sample or the peak area ratio of the test compound to the internal standard. Ccontrol is the drug concentration of the compound in the blank control sample or the peak area ratio of the test compound to the internal standard. Percentage of free drug (Fu%) = 100 - Fb The binding rates of the compounds of the present invention to melanin are shown in the table below: Table 11. Binding Rate of Compounds to Melanin

[3] = Thermodynamic solubility test; format: physicochemical; conditions: buffer solution, aqueous buffer, thermodynamic from solid; thermodynamic solubility, room temperature, 8 hours shaking; buffers pH 2.0, 6.5, 7.4 used, pH of the tabulated value not given
Experimental: Solubility Test of Compounds
Table 9. Reagents and Instruments
After sonication for 10 minutes, they were fixed on a shaker and shaken at room temperature for 8 hours. After shaking, they were sonicated for 10 minutes and centrifuged at 13000 rpm for 15 minutes. 0.1 mL of supernatant was aspirated into a new tube, rinsed with 5 mL of buffer by shaking, and the liquid was discarded. 0.5 mL of supernatant was transferred again to a new tube, centrifuged at 13000 rpm for 15 minutes, and the supernatant was taken (diluted with water if necessary) for LC-MS injection analysis. Sample concentrations were quantified using a 3-5 point calibration curve.

EGFR = biological target: T1, EGFR (Homo sapiens, UniProt P00533); test: Kinase inhibitory activity, Mobility Shift Assay (EGFR); format: biochemical
T1 construct: purchased Carna 08-115
Experimental: Assay for Inhibitory Activity of Compounds Against VEGFR and EGFR Kinases
This assay directly monitors the inhibitory activity of compounds on kinase phosphorylation by measuring non-phosphorylated and phosphorylated substrates in the kinase reaction using Mobility Shift Assays/IMAP™ analysis. Table 2. Reagents and Instruments
Kinase and DTT were added to 1X kinase buffer to form a 2.5X kinase solution; 10 µL of the 2.5X kinase solution was transferred to a 384-well reaction plate, and 1X kinase buffer was added to the negative control wells. The plate was incubated at room temperature for 10 minutes; FAM-labeled peptide, MgCl2, ATP, and other reagents were added to 1X kinase buffer to form a 2.5X substrate solution; 10 µL of the above 2.5X substrate solution was transferred to the 384-well reaction plate; the plate was incubated at 28°C for varying times, and then 25 µL of stop solution was added to the 384-well reaction plate to terminate the reaction. Conversion rate data were read on a CaliperEZ Reader II. […] IC50 values were fitted using XLFit excel add-in version 5.4.0.8. Y = Bottom + (Top−Bottom)/(1 + […]) [formula]
X is the log value of compound concentration, Y is the inhibition rate (% inhibition).

[4] = Table 16: 2 mg/mL, Polyethylene Glycol 400 5, Poloxamer 188 1, Hydroxypropyl-β-cyclodextrin 6, Gellan Gum Gelrite 0.15, Tris-HCl Buffer (pH 6.8) 25mM
[5] = Table 13: 1mg/ml, Polyethylene glycol 400 5, Hydroxypropyl-β-cyclodextrin 10, Tris-HCl buffer (pH 8.3) 50mM, Carbomer 0.48, Poloxamer 188 1
[6] = Table 14: 5mg/ml, Polyethylene glycol 400 10, Hydroxypropyl-β-cyclodextrin 10, Gellan Gum Gelrite 0.3, Poloxamer 188 1, 0.5 M Tris solution 2, 0.1 M Citric acid 1
[7] = Table 15: 10 mg/mL, Polyethylene glycol 400 10, Hydroxypropyl-β-cyclodextrin 10, Gellan Gum Gelrite 0.3, Poloxamer 188 1, Tris solution and Citric acid

T1 sequence (P00533 25-1210): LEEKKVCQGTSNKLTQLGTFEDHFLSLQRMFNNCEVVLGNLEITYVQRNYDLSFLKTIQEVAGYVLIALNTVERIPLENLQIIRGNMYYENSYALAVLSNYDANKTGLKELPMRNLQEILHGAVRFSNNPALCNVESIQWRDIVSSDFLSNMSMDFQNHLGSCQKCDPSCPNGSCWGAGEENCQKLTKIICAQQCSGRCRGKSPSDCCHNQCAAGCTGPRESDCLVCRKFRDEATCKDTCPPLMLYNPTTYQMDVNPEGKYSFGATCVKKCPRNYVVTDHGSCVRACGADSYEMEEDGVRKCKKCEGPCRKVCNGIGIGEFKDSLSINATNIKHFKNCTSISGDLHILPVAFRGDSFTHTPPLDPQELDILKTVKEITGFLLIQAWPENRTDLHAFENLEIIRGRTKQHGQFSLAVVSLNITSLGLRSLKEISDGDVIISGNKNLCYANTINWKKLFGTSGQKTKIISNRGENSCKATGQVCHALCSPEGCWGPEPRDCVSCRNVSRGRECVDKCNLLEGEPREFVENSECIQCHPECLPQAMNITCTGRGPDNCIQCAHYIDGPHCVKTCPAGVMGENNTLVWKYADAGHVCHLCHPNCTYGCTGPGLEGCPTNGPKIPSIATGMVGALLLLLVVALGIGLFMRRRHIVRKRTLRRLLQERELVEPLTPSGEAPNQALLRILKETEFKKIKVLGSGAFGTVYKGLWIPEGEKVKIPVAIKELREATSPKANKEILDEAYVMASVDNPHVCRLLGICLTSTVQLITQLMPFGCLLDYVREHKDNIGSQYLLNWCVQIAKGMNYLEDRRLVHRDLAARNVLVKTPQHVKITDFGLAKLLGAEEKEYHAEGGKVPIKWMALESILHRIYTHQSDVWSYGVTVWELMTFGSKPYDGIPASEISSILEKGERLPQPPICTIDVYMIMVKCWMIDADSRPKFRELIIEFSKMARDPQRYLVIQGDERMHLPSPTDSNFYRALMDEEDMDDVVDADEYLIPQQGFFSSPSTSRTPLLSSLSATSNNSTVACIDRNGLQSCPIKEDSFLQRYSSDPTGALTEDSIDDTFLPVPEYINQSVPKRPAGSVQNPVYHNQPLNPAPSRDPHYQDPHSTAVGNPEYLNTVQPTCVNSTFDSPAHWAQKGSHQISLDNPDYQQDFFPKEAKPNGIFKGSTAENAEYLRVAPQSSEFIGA

| SMILES | State Description: pH [2, 4] | State Description: state [2, 4] | fraction unbound at 2 h, 2 µM (melanin) | solubility at 8 h [3] [µg/mL] | State Description: pH [2, 7] | State Description: state [2, 7] | Osmolality (mOsm/kg) [2, 4] [mOsm/kg] | other results |
| --- | --- | --- | --- | --- | --- | --- | --- | --- |
| CCNC(=O)c1cccc(F)c1Sc1ccc2c(/C=C/c3ccc(CN4CCCC4)cn3)n[nH]c2c1 [Compound I-75, N-ethyl-3-fluoro-2-({3-[(E)-2-{5-[(pyrrolidin-1-yl)methyl]pyridin-2-yl}ethenyl]-1H-indazol-6-yl}sulfanyl)benzamide] | ~7 | solution | – | – | – | – | – | – |
| CCNC(=O)c1cc(F)ccc1Sc1ccc2c(/C=C/c3cnn(CCCN4CCCC4)c3)n[nH]c2c1 [Compound I-104, N-ethyl-5-fluoro-2-({3-[(E)-2-{1-[3-(pyrrolidin-1-yl)propyl]-1H-pyrazol-4-yl}ethenyl]-1H-indazol-6-yl}sulfanyl)benzamide] | ~7 | solution | > 0.05 | 2180 (≈ 4200 µM) | – | – | ~300 | IC50 (EGFR): > 60 µM |
| O=C(NC1CC1)c1ccccc1Sc1ccc2c(/C=C/c3cc(OCCN4CCCC4)ccn3)n[nH]c2c1 [Compound I-110, N-cyclopropyl-2-({3-[(E)-2-{4-[2-(pyrrolidin-1-yl)ethoxy]pyridin-2-yl}ethenyl]-1H-indazol-6-yl}sulfanyl)benzamide] | – | – | – | – | – | – | – | State Description ([1]; Table 20, Compound 10 mg/ml, 1M Methanesulfonic Acid 2%, Polyoxyethylene castor oil EL 1%, 0.5M Tris 2%): near-clear solution; State Description ([1]; Table 20, Compound 20 mg/ml, 1M Methanesulfonic Acid 4%, Polyoxyethylene castor oil EL 1%, 0.5M Tris 2%): near-clear solution |

Second part, led by results:

| State Description: pH [2, 4] | State Description: state [2, 4] | fraction unbound at 2 h, 2 µM (melanin) | solubility at 8 h [3] [µg/mL] | State Description: pH [2, 7] | State Description: state [2, 7] | Osmolality (mOsm/kg) [2, 4] [mOsm/kg] | SMILES | other results |
| --- | --- | --- | --- | --- | --- | --- | --- | --- |
| ~7 | solution | > 0.05 | 118 (≈ 230 µM) | – | – | – | O=C(NC1CC1)c1cccc(F)c1Sc1ccc2c(/C=C/c3ccc(CN4CCCC4)cn3)n[nH]c2c1 [Compound I-67, N-cyclopropyl-3-fluoro-2-({3-[(E)-2-{5-[(pyrrolidin-1-yl)methyl]pyridin-2-yl}ethenyl]-1H-indazol-6-yl}thio)benzamide] | State Description ([1]; Table 19, Compound 5 mg/ml, 1M Benzenesulfonic Acid 1%, no Polyoxyethylene castor oil EL, no alkali added): solution; State Description ([1]; Table 19, Compound 5 mg/ml, 1M Methanesulfonic Acid 1%, Polyoxyethylene castor oil EL 1%, 0.5M Tris 0.5%): solution; State Description ([1]; Table 19, Compound 5 mg/ml, 1M Methanesulfonic Acid 1%, no Polyoxyethylene castor oil EL, 0.5M Tris 0.5%): near-clear solution; State Description ([1]; Table 19, Compound 10 mg/ml, 1M Acetic Acid 2%, no Polyoxyethylene castor oil EL, 0.5M Tris 1%): solution; State Description ([1]; Table 19, Compound 10 mg/ml, 1M Lactic Acid 2%, no Polyoxyethylene castor oil EL, 0.5M Tris 1%): solution; State Description ([1]; Table 19, Compound 20 mg/ml, 1M Methanesulfonic Acid 4%, Polyoxyethylene castor oil EL 1%, 0.5M Tris 1.5%): near-clear solution |
| ~7 | solution | > 0.05 | 599 (≈ 1160 µM) | ~5.5 | gel | ~300 | CCN(CC)Cc1ccc(/C=C/c2n[nH]c3cc(Sc4ccc(F)cc4C(=O)NC4CC4)ccc23)nc1 [Compound I-84, N-cyclopropyl-5-fluoro-2-({3-[(E)-2-{5-[(diethylamino)methyl]pyridin-2-yl}ethenyl]-1H-indazol-6-yl}thio)benzamide] | State Description: pH [2, 5]: ~5; State Description: state [2, 5]: homogeneous suspension; State Description: pH [2, 6]: ~7.5; State Description: state [2, 6]: near-clear solution |
| ~7 | solution | 0.01 to 0.05 | 1130 (≈ 2320 µM) | ~5.5 | near-clear solution | ~300 | CCNC(=O)c1ccccc1Sc1ccc2c(/C=C/c3ccc(CN(CC)CC)cn3)n[nH]c2c1 [Compound I-86, 2-({3-[(E)-2-{5-[(diethylamino)methyl]pyridin-2-yl}ethenyl]-1H-indazol-6-yl}thio)-N-ethylbenzamide] | – |
